In US20230192617A1, “AZABICYCLIC(THIO)AMIDES AS FUNGICIDAL COMPOUNDS” (Bayer CropScience Aktiengesellschaft, priority 2020, published 2023):

What was measured:
[1] = Measurement of Log P values by HPLC on reversed phase columns (EEC directive 79/831 Annex V.A8); format: physicochemical; conditions: reversed phase HPLC column
In short: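 Log P derived from retention on reversed-phase columns (EEC directive 79/831 Annex V.A8), LC-UV, acetonitrile gradient 10% to 95% against water containing 0.1% formic acid, 0.001 M ammonium acetate, or 0.1% phosphoric acid; several values per method separated by "+".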

[2] = tested on: Alternaria brassicae; test: In vivo preventive test on Alternaria brassicae (leaf spot on radish or cabbage); conditions: 500 ppm of active ingredient, preventive spray on radish or cabbage, evaluated 3 to 4 days after inoculation, read-out: efficacy
In short: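 Protective spray on young radish or cabbage: actives in water diluted from DMSO/acetone/Tween 80, with solvent-only controls. Leaves were challenged after 24 h with a spore suspension, and plants were held at 100% RH, 20 °C for 3 to 4 days.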

[3] = tested on: Botrytis cinerea; test: In vivo preventive test on Botrytis cinerea (grey mould); conditions: 500 ppm of active ingredient, preventive spray on gherkin or cabbage, evaluated 4 to 5 days after inoculation, read-out: efficacy
In short: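 Preventive spray on cabbage or gherkin seedlings, with compound formulated in DMSO/acetone/Tween 80 and water-diluted, preceded spore inoculation by 24 hours. Cabbage was held 4 to 5 days at 20° C., 100% relative humidity; gherkin 4 to 5 days at 17° C., 90% relative humidity.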

[4] = tested on: Sphaerotheca fuliginea; test: In vivo preventive test on Sphaerotheca fuliginea (powdery mildew on cucurbits); conditions: Podosphaera fuliginea, 192 h; 500 ppm of active ingredient; preventive spray on gherkin; evaluated 8 days after inoculation; read-out: efficacy
Procedure: B-4. in vivo preventive test on Sphaerotheca fuliginea (powdery mildew on cucurbits) [table] The active ingredients were made soluble and homogenized in a mixture of Dimethyl sulfoxide/Acetone/Tween® 80 and then diluted in water to the desired concentration. The young plants of gherkin were treated by spraying the active ingredient prepared as described above. Control plants were treated only with an aqueous solution of Acetone/Dimethyl sulfoxide/Tween® 80. After 24 hours, the plants were contaminated by spraying the leaves with an aqueous suspension of Sphaerotheca fuliginea spores. The contaminated gherkin plants were incubated for 8 days at 20° C. and at 70-80% relative humidity.

[5] = tested on: Alternaria alternata; test: Alternaria alternata in vitro cell test; format: cell-based; conditions: 120 h, 20 ppm of active ingredient, liquid culture, 5 days incubation, spectrometric measurement of mycelium growth, read-out: efficacy (inhibition of fungal growth)
In short: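 Spectrometric readout of mycelial growth after 5-day incubation gauged compound effects on spore germination and growth of A. alternata in liquid medium. Compounds were delivered in DMSO at ≤1% final. Absorbance was compared with untreated controls to give inhibition.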

[6] = tested on: Colletotrichum lindemuthianum; test: B-8. Colletotrichum lindemuthianum in vitro cell test; format: cell-based; conditions: 144 h, 20 ppm of active ingredient, 6 days incubation, liquid culture, absorbance, read-out: efficacy (inhibition of fungal growth)
In short: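 Liquid-culture germination/growth test: compounds in ≤1% final DMSO were added to spore-containing medium. Fungal growth was quantified spectrophotometrically after 6 days of incubation and expressed as inhibition versus untreated controls.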

[7] = tested on: Botrytis cinerea; test: B-11. Botrytis cinerea in vitro cell test; format: cell-based; conditions: 144 h, 20 ppm of active ingredient, 6 days incubation, liquid culture, absorbance, read-out: efficacy (inhibition of fungal growth)
In short: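 B. cinerea spores were grown in liquid culture with compound (DMSO ≤1% final). Mycelium growth was measured spectrometrically after 6 days, with inhibition taken as absorbance relative to untreated control wells.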

[8] = method [a]: LC-UV, acidic range, 0.1% formic acid in water and acetonitrile as eluent

| SMILES | chromatographic logP [1, 8] | chromatographic logP ([1]; method [b]: LC-UV, neutral range, 0.001 molar ammonium acetate solution in water and acetonitrile as eluent) | pest or weed control at 500 ppm [2] | pest or weed control at 500 ppm [3] | pest or weed control at 500 ppm [4] | inhibition at 20 ppm [5] | inhibition at 20 ppm [6] | inhibition at 20 ppm [7] |
| --- | --- | --- | --- | --- | --- | --- | --- | --- |
| Cc1cccc(Oc2nnc3ccccc3c2C(=O)N[C@@H](C)c2cccc(C(F)(F)F)c2)c1 (racemic) [I-020] | 3.79 | – | 90 to 100% | 90 to 100% | 70 to 79% | 80 to 89% | 70 to 79% | – |
| Cc1cc(C(F)F)ccc1[C@@H](F)CNC(=O)c1c(Oc2cccc(C(F)(F)F)c2)cnc2ccccc12 (racemic) [I-057] | 4.08 | – | 90 to 100% | 90 to 100% | 90 to 100% | 90 to 100% | 90 to 100% | 90 to 100% |
| COc1cc([C@@H](F)CNC(=O)c2c(Oc3cccc(C(F)(F)F)c3)cnc3ccccc23)ccc1Cl (racemic) [I-058] | 4.05 | – | 90 to 100% | 90 to 100% | 90 to 100% | 90 to 100% | 90 to 100% | 90 to 100% |
| O=C(N[C@H]1CCCc2cc(Br)ccc21)c1c(Oc2cccc(C(F)(F)F)c2)cnc2c1OCCO2 (racemic) [I-111] | 4.03 | 3.99 | 90 to 100% | 90 to 100% | 90 to 100% | – | 90 to 100% | – |
| Cc1ccc(CCNC(=O)c2c(Oc3cccc(C(F)(F)F)c3)nnc3ccc(C)cc23)c(C)c1 [I-003] | 4.47 | – | 90 to 100% | 90 to 100% | 90 to 100% | 90 to 100% | 90 to 100% | – |
| Cc1ccc(CCNC(=O)c2c(Oc3cccc(C(F)(F)F)c3)nnc3cc(C)ccc23)c(C)c1 [I-004, N-[2-(2,4-dimethylphenyl)ethyl]-7-methyl-3-[3-(trifluoro-methyl)phenoxy]cinnoline-4-carboxamide] | 4.51 | – | 90 to 100% | 90 to 100% | 90 to 100% | 90 to 100% | 90 to 100% | – |

Further lines, with some results ahead:

| chromatographic logP [1, 8] | chromatographic logP ([1]; method [b]: LC-UV, neutral range, 0.001 molar ammonium acetate solution in water and acetonitrile as eluent) | SMILES | pest or weed control at 500 ppm [2] | pest or weed control at 500 ppm [3] | pest or weed control at 500 ppm [4] | inhibition at 20 ppm [5] | inhibition at 20 ppm [6] | inhibition at 20 ppm [7] |
| --- | --- | --- | --- | --- | --- | --- | --- | --- |
| 4.56 | – | O=C(NC[C@H](F)c1ccc(Br)cc1Cl)c1c(Oc2cccc(C(F)(F)F)c2)cnc2ccccc12 (racemic) [I-041] | 90 to 100% | 90 to 100% | 90 to 100% | 90 to 100% | 90 to 100% | – |
| 4.46 | – | O=C(NC[C@H](F)c1ccc(Cl)cc1Cl)c1c(Oc2cccc(C(F)(F)F)c2)cnc2ccccc12 (racemic) [I-043] | 90 to 100% | 90 to 100% | 90 to 100% | 90 to 100% | 90 to 100% | – |
| 4.47 | – | O=C(NC[C@@H](F)c1ccc(Cl)c(Cl)c1)c1c(Oc2cccc(C(F)(F)F)c2)cnc2ccccc12 (racemic) [I-059] | – | 90 to 100% | 70 to 79% | 90 to 100% | – | 90 to 100% |
| 4.7 | – | O=C(NC[C@H](F)c1ccc(C2CC2)cc1Cl)c1c(Oc2cccc(C(F)(F)F)c2)cnc2ccccc12 (racemic) [I-062] | 90 to 100% | 90 to 100% | 90 to 100% | 90 to 100% | 90 to 100% | 90 to 100% |
| 4.59 | – | Cc1cc(Br)ccc1[C@@H](F)CNC(=O)c1c(Oc2cccc(C(F)(F)F)c2)cnc2ccccc12 (racemic) [I-063] | 90 to 100% | 90 to 100% | 90 to 100% | 90 to 100% | 90 to 100% | 90 to 100% |
